# Data: publication PMC4201869 (Neuroendocrinology, 2014)
# Several values for one entry are separate records, joined by “and”; a condition that tells them apart may be missing. Equal entries are not always repeated. Where no end group is shown, it is not given here.
# Key:
# GnRH neurons [1] = assay type: cell-based, rat
# Kiss1R (Homo sapiens) = Kiss1R (Homo sapiens) (UniProt Q969F8); conditions: cited from earlier work
# GnRH neurons [2] = assay: Current-voltage; assay type: cell-based, rat; conditions: 100 nM Kp-10, compared to control; representative recording (Figure 5B)
# GnRH neurons [3] = test system: GnRH neurons
# GnRH neurons [4] = conditions: mice and guinea pigs; cited from earlier work
# GnRH neurons [5] = conditions: adult male mouse; cited from earlier work
# GnRH neurons [6] = assay: Spontaneous action potential firing, current clamp, slices from female rats; assay type: cell-based, rat; conditions: 7-10 min after addition
# Chain of UniProt Q969F8 (Q969F8 whole entry): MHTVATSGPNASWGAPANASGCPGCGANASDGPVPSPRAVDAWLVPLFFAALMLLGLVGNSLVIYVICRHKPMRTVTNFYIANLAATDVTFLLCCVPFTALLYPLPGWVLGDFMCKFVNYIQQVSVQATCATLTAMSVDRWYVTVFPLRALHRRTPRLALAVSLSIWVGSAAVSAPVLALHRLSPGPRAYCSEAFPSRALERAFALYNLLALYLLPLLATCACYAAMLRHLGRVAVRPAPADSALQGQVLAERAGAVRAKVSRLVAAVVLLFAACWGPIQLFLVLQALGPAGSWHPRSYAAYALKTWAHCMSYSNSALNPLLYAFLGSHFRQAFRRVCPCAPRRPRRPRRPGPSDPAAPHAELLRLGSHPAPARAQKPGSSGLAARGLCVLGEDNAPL
# Chain of Kp-10 (Q15726 whole entry, looked up): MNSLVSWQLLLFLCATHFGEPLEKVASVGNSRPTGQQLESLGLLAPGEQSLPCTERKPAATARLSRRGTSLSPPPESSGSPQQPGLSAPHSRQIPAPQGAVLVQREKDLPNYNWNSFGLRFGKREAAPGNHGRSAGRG
substance,measurement,setting,value
"CART: Cocaine and Amphetamine Regulated Transcript (55–102, rat), American Peptide Company, excitatory neuropeptide (IPIYEKKYGQVPMCDAGEQCAVRKGARIGKLCDCPRGTSCNSFLLKCL; ends and bridges not checked; cysteine pairing not given here; UniProt P49192 82-129, looked up, fragment)","CART-induced firing and depolarization, in words",GnRH neurons [1],persisted long after washout
same,GnRH neurons responding to CART,"GnRH neurons [1]; 30 nM CART, 8 out of 12 cells from 5 animals, without TTX",60–70%
same,membrane depolarization by CART alone under TTX,"GnRH neurons [1]; 30 nM CART, TTX, n = 12 cells from 6 animals, mean ± SEM",7.3 ± 0.6 mV and 7.3 ± 0.64 mV
same,membrane depolarization by CART,"GnRH neurons [1]; 30 nM CART, without TTX, p<0.0001",7.8 ± 0.1 mV
Kp-10 (from UniProt Q15726),Kd,Kiss1R (Homo sapiens),2.7 nM
"YNWNSFGLRY-NH2 [Kp-10, Mouse KiSS-1 (110–119)-NH2]",reversal potential of kisspeptin-induced current,GnRH neurons [2],−110 mV
same,depolarization by submaximal dose,"GnRH neurons [3]; 10 nM Kp-10, TTX, mean ± SEM",14.6 ± 2.3 mV
same,maximum depolarization,"GnRH neurons [3]; 100 nM Kp-10, TTX, mean ± SEM",20.2 ± 1.2 mV
same,"depolarization, in words","GnRH neurons [3]; current clamp, TTX 1.0 μM, female rats","very prolonged, concentration-dependent depolarization of GnRH neurons that persisted long after washout of the agonist"
same,cells responding to kisspeptin,"GnRH neurons [3]; female rats, current clamp, TTX",Approximately 90%
same,reversal potential of kisspeptin-induced currents,GnRH neurons [4],−100 to −110 mV
same,GnRH neurons activated by kisspeptin,GnRH neurons [5],about 90%
same,"effect on action potential firing, in words",GnRH neurons [6],stimulated the cell
